Test results reported in patent publication US20140221301A1, “COMBINATION TREATMENT FOR CANCER” (priority 2011, published 2014).

Assays:
TEX cells = test: ROS generation (DCF-DA, DHE) in TEX cells; assay type: cell-based, human; details: time-points up to 24 hours
Description: FIG. 4. […] (A) Cells from TEX, OCI-AML2 and two primary AML patients were treated with increasing concentrations (2.5 μM and 5 μM) of tigecycline for 36 and 48 hours of tigecycline. Total proteins were extracted and analyzed by western blotting for Cox-1, Cox-2, Cox-4, grp78, XIAP, actin and tubulin. (B) TEX and AML patient cells were treated with increasing concentrations (2.5 μM and 5 μM) of tigecycline. Cox-1, Cox-2, and Cox-4 mRNA expression relative 18S was determined by quantitative RT-PCR. Data is shown as mean±SD. (C) TEX cells were treated with increasing concentrations of tigecycline and chloramphenicol (CAP) for 72 hours. Complex I, II and IV enzyme activity relative to citrate synthase activity was determined as described in materials and methods. (D) Cells from TEX, primary AML patients, and normal donors were treated with increasing concentrations of tigecycline. Mitochondrial membrane potential (ΔΨ) was determined by staining cells with JC-1 dye, and flow cytometry analysis (Red/Green ratio). Reactive oxygen species generation (ROS) was determined by staining with h2-DCFDA and Dihydroethidium (DHE).
A byproduct of the mitochondrial enzyme activities of the electron transport chain is the generation of reactive oxygen species (ROS). […] Therefore, the role of tigecycline on ROS generation in leukemia cells by analyzing hydrogen peroxide ions (H2O2) using a dichlorofluorescein dye (DCF-DA), and superoxide anions using dihydroethidium (DHE) was examined.

[1] = tested on: acute myeloid leukemia (AML); details: 13 patients treated; cited from earlier work

Compound | ROS generation (TEX cells) | complete remission [1] | partial remissions [1]
CC[C@H]1/C=C/C=C/C[C@@H](C)[C@H](O)[C@@](C)(O)C(=O)[C@@H](C)[C@H](O)[C@@H](C)C(=O)[C@@H](C)[C@H](O)[C@@H](C)/C=C/C(=O)O[C@@H]2[C@H](C)[C@H](CC1)O[C@]1(CC[C@H](C)[C@H](C[C@@H](C)O)O1)[C@H]2C [oligomycin] | rapid increases |  | 
NC(=O)c1ncn([C@@H]2O[C@H](CO)[C@@H](O)[C@H]2O)n1 [ribavirin] |  | 1 | 2
C=C(C)[C@H]1Cc2c(ccc3c2O[C@@H]2COc4cc(OC)c(OC)cc4[C@@H]2C3=O)O1 [rotenone] | rapid increases |  | 
antimycin | rapid increases |  | 
